The source of these data is patent US6964975B2, “Isoxazole and thiazole compounds and use thereof as medicine” (Kirin Beer Kabushiki Kaisha, priority 2000, dated 2005).

By pIC50 is commonly meant the IC50 on a negative log10 scale, so that one unit is a factor of ten.

Structures are written as SMILES. pIC50: −log10 of the molar value. Bounds are passed on as bounds.

For the experiment, the target named is T1, human EDG-2 (Homo sapiens, UniProt Q92633).
T1 construct: cDNA of the cloned human EDG-2 was introduced into pEFneo, which is an animal expression vector; expressed in transfected cells; host or cells: HepG2
T1 sequence (Q92633 whole entry): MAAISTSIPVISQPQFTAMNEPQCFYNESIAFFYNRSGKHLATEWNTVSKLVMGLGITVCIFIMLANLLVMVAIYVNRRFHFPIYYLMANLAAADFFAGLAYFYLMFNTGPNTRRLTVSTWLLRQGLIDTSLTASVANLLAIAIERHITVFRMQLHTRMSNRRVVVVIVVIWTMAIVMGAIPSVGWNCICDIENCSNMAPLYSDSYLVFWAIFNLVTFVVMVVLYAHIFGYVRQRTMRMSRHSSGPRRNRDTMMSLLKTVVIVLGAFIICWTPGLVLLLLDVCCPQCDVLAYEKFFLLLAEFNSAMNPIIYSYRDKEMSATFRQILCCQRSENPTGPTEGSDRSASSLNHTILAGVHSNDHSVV
The experiment is described as follows: Inhibitory activity on LPA-induced elevation of intracellular Ca2+ level. It counts as cell-based. As to conditions: 50% inhibition of elevation of intracellular Ca2+ level by LPA, human EDG-2/HepG2 cells, fura-2. The text has this: The human EDG-2 expression plasmid was introduced into HepG2 cells by electroporation. After the introduction, culturing was continued while exchanging selective media every 3 to 4 days, thereby obtaining an expressed colony. Regarding these cells, Ca-influx and cell-proliferation by LPA, level of [^3H] LPA binding and the like were inspected to select a cell line which highly expresses human EDG-2 (human EDG-2/HepG2).
Human EDG-2/HepG2 cells were washed and then suspended in 0.1% BSA (bovine serum albumin)-containing HEPES buffer. A fluorescent indicator, fura-2/AM (Wako Pure Chemical Industries, Ltd.), was added, and the mixture was shaken at room temperature for 45 minutes so that the indicator is included in the cell. Cells were washed again and then suspended in 0.1% BSA-containing HEPES buffer, and intracellular Ca^2+ level was assayed using FDSS2000 (Hamamatsu Photonics). […] Each test compound was added to the cell suspension followed by the addition of LPA, thereby examining the inhibitory activity of the test compound on the function of LPA for elevating the intracellular Ca level. […] The lower the IC50 value, the higher the antagonistic activity on the LPA receptor.
For `Cc1onc(-c2ccccc2)c1NC(=O)OCc1ccccc1` [Compound 2, Benzyl N-(5-methyl-3-phenyl-4-isoxazolyl)carbamate], the pIC50 was 4.00 to 4.52. The same measure for `Cc1noc(-c2ccccc2)c1NC(=O)OC(C)c1ccccc1Cl` (stereo not drawn) [Compound 3, 1-(2-Chlorophenyl)ethyl N-(3-methyl-5-phenyl-4-isoxazolyl)carbamate]: 5.52; for `Cc1ccc(-c2noc(C)c2NC(=O)OC(C)c2ccccc2Cl)cc1` (stereo not drawn) [Compound 5, 1-(2-Chlorophenyl)ethyl N-[5-methyl-3-(4-methylphenyl)-4-isoxazolyl]carbamate]: 4.52 to 5.00. The same measure for `Cc1onc(-c2ccc([N+](=O)[O-])cc2)c1NC(=O)OC(C)c1ccccc1Cl` (stereo not drawn) [Compound 6, 1-(2-Chlorophenyl)ethyl N-[5-methyl-3-(4-nitrophenyl)-4-isoxazolyl]carbamate]: 5.00; for `Cc1noc(-c2ccccc2)c1NC(=O)OCc1ccccc1` [Compound 7, Benzyl N-(3-methyl-5-phenyl-4-isoxazolyl)carbamate]: 4.52; for `Cc1onc(-c2ccc(CO)cc2)c1NC(=O)OC(C)c1ccccc1Cl` (stereo not drawn) [Compound 8, 1-(2-Chlorophenyl)ethyl N-[3-[4-(hydroxymethyl)phenyl]-5-methyl-4-isoxazolyl]carbamate]: 5.00 to 5.52. The same measure for `Cc1onc(-c2ccccc2)c1NC(=O)O[C@H](C)c1ccccc1` [Compound 9, (1R)-1-Phenylethyl N-(5-methyl-3-phenyl-4-isoxazolyl)carbamate]: 4.52 to 5.00. Consider `Cc1onc(-c2ccccc2)c1NC(=O)O[C@@H](C)c1ccccc1` [Compound 10, (1S)-1-Phenylethyl N-(5-methyl-3-phenyl-4-isoxazolyl)carbamate], for which the negative-log IC50 (pIC50) was at most 4.00. The same measure for `Cc1onc(-c2ccc(OC(F)(F)F)cc2)c1NC(=O)OC(C)c1ccccc1Cl` (stereo not drawn) [Compound 11, 1-(2-Chlorophenyl)ethyl N-[5-methyl-3-[4-(trifluoromethoxy)phenyl]-4-isoxazolyl]carbamate]: 4.52 to 5.00. As for `Cc1onc(-c2ccccc2)c1NC(=O)OC(C)c1ccccc1` (stereo not drawn) [Compound 12, 1-Phenylethyl N-(5-methyl-3-phenyl-4-isoxazolyl)carbamate], the figure is 4.00 to 4.52; as for `Cc1onc(-c2cccc(Br)c2)c1NC(=O)OC(C)c1ccccc1Cl` (stereo not drawn) [Compound 13, 1-(2-Chlorophenyl)ethyl N-[3-(3-bromophenyl)-5-methyl-4-isoxazolyl]carbamate], 4.52; as for `Cc1ccccc1C(C)OC(=O)Nc1c(-c2ccccc2)noc1C` (stereo not drawn) [Compound 14, 1-(2-Methylphenyl)ethyl N-(5-methyl-3-phenyl-4-isoxazolyl)carbamate], 4.00 to 4.52. For `Cc1onc(-c2cccc(C(F)(F)F)c2)c1NC(=O)OC(C)c1ccccc1Cl` (stereo not drawn) [Compound 15, 1-(2-Chlorophenyl)ethyl N-[5-methyl-3-[3-(trifluoromethyl)phenyl]-4-isoxazolyl]carbamate], the pIC50 is 4.52. The same measure for `Cc1onc(-c2ccc(F)cc2)c1NC(=O)OC(C)c1ccccc1Cl` (stereo not drawn) [Compound 16, 1-(2-Chlorophenyl)ethyl N-[3-(4-fluorophenyl)-5-methyl-4-isoxazolyl]carbamate]: 5.00 to 5.52; for `Cc1onc(-c2ccccc2)c1NC(=O)O[C@H](C)c1ccccc1Cl` [Compound 17, (1R)-1-(2-Chlorophenyl)ethyl N-(5-methyl-3-phenyl-4-isoxazolyl)carbamate]: 5.52. The same measure for `Cc1noc(-c2ccccc2)c1NC(=O)O[C@H](C)c1ccccc1Cl` [Compound 18, (1R)-1-(2-Chlorophenyl)ethyl N-(3-methyl-5-phenyl-4-isoxazolyl)carbamate]: 5.52; for `Cc1onc(-c2ccccc2)c1NC(=O)OC(C)c1ccccc1F` (stereo not drawn) [Compound 19, 1-(2-Fluorophenyl)ethyl N-(5-methyl-3-phenyl-4-isoxazolyl)carbamate]: 5.00 to 5.52; for `Cc1onc(-c2cccc(F)c2)c1NC(=O)OC(C)c1ccccc1Cl` (stereo not drawn) [Compound 21, 1-(2-Chlorophenyl)ethyl N-[3-(3-fluorophenyl)-5-methyl-4-isoxazolyl]carbamate]: 5.52. The same measure for `Cc1onc(-c2ccccc2)c1NC(=O)O[C@H](C)c1ccccc1Br` [Compound 22, (1R)-1-(2-Bromophenyl)ethyl N-(5-methyl-3-phenyl-4-isoxazolyl)carbamate]: 5.00 to 5.52; for `Cc1onc(-c2ccccc2)c1NC(=O)OC(C)c1ccccc1Br` (stereo not drawn) [Compound 23, 1-(2-Bromophenyl)ethyl N-(5-methyl-3-phenyl-4-isoxazolyl)carbamate]: 5.00; for `CC(OC(=O)Nc1c(Cl)nsc1-c1ccccc1Cl)c1ccccc1` (stereo not drawn) [Compound 25, 1-Phenylethyl N-[3-chloro-5-(2-chlorophenyl)-4-isothiazolyl]carbamate]: 4.00 to 4.52. For the molecule `Cc1cccc(-c2onc(C)c2NC(=O)OC(C)c2ccccc2)c1` (stereo not drawn) [Compound 27, 1-Phenylethyl N-[3-methyl-5-(3-methylphenyl)-4-isoxazolyl]carbamate], the pIC50 is 4.52. The same measure for `Cc1cccc(-c2onc(C)c2NC(=O)OC(C)c2ccccc2Cl)c1` (stereo not drawn) [Compound 28, 1-(2-Chlorophenyl)ethyl N-[3-methyl-5-(3-methylphenyl)-4-isoxazolyl]carbamate]: 4.52 to 5.00; for `Cc1noc(-c2cccc(F)c2)c1NC(=O)OC(C)c1ccccc1` (stereo not drawn) [Compound 29, 1-Phenylethyl N-[5-(3-fluorophenyl)-3-methyl-4-isoxazolyl]carbamate]: 5.00; for `Cc1noc(-c2cccc(F)c2)c1NC(=O)OC(C)c1ccccc1Cl` (stereo not drawn) [Compound 30, 1-(2-Chlorophenyl)ethyl N-[5-(3-fluorophenyl)-3-methyl-4-isoxazolyl]carbamate]: 5.00 to 5.52. `Cc1noc(-c2ccco2)c1NC(=O)OC(C)c1ccccc1` (stereo not drawn) [Compound 31, 1-Phenylethyl N-[5-(2-furyl)-3-methyl-4-isoxazolyl]carbamate] had a pIC50 of 5.00. As for `Cc1noc(-c2cccc(F)c2)c1NC(=O)O[C@H](C)c1ccccc1Br` [Compound 33, (1R)-1-(2-Bromophenyl)ethyl N-[5-(3-fluorophenyl)-3-methyl-4-isoxazolyl]carbamate], the figure is 5.00 to 5.52; as for `Cc1noc(-c2cccc(F)c2)c1NC(=O)OC(C)c1ccccc1F` (stereo not drawn) [Compound 34, 1-(2-Fluorophenyl)ethyl N-[5-(3-fluorophenyl)-3-methyl-4-isoxazolyl]carbamate], 5.00; as for `Cc1noc(-c2ccc(OC(F)(F)F)cc2)c1NC(=O)OC(C)c1ccccc1` (stereo not drawn) [Compound 35, 1-Phenylethyl N-[5-[4-(trifluoromethoxy)phenyl]-3-methyl-4-isoxazolyl]carbamate], 5.00 to 5.52. The same measure for `Cc1noc(-c2ccc(OC(F)(F)F)cc2)c1NC(=O)OC(C)c1ccccc1Cl` (stereo not drawn) [Compound 36, 1-(2-Chlorophenyl)ethyl N-[5-[4-(trifluoromethoxy)phenyl]-3-methyl-4-isoxazolyl]carbamate]: 5.00 to 5.52; for `Cc1ccc(-c2onc(C)c2NC(=O)OC(C)c2ccccc2)cc1` (stereo not drawn) [Compound 37, 1-Phenylethyl N-[3-methyl-5-(4-methylphenyl)-4-isoxazolyl]carbamate]: 4.52; for `Cc1ccc(-c2onc(C)c2NC(=O)OC(C)c2ccccc2Cl)cc1` (stereo not drawn) [Compound 38, 1-(2-Chlorophenyl)ethyl N-[3-methyl-5-(4-methylphenyl)-4-isoxazolyl]carbamate]: 5.00.

Molecule `Cc1noc(-c2cccc(Cl)c2)c1NC(=O)OC(C)c1ccccc1Cl` (stereo not drawn) [Compound 39, 1-(2-Chlorophenyl)ethyl N-[5-(3-chlorophenyl)-3-methyl-4-isoxazolyl]carbamate] showed a pIC50 of 5.00.

As for `Cc1noc(-c2ccc(F)cc2)c1NC(=O)OC(C)c1ccccc1` (stereo not drawn) [Compound 40, 1-Phenylethyl N-[5-(4-fluorophenyl)-3-methyl-4-isoxazolyl]carbamate], the pIC50 was 5.00.

Take `Cc1noc(-c2ccc(F)cc2)c1NC(=O)OC(C)c1ccccc1Cl` (stereo not drawn) [Compound 41, 1-(2-Chlorophenyl)ethyl N-[5-(4-fluorophenyl)-3-methyl-4-isoxazolyl]carbamate]: the pIC50 was 5.00 to 5.52. As for `Cc1noc(-c2ccccc2F)c1NC(=O)OC(C)c1ccccc1` (stereo not drawn) [Compound 42, 1-Phenylethyl N-[5-(2-fluorophenyl)-3-methyl-4-isoxazolyl]carbamate], the figure is 5.00; as for `Cc1noc(-c2ccccc2F)c1NC(=O)OC(C)c1ccccc1Cl` (stereo not drawn) [Compound 43, 1-(2-Chlorophenyl)ethyl N-[5-(2-fluorophenyl)-3-methyl-4-isoxazolyl]carbamate], 5.00 to 5.52; as for `Cc1noc(-c2ccc(OC(F)(F)F)cc2)c1NC(=O)O[C@H](C)c1ccccc1Br` [Compound 44, (1R)-1-(2-Bromophenyl)ethyl N-[3-methyl-5-[4-(trifluoromethoxy)phenyl]-4-isoxazolyl]carbamate], 5.52. Regarding `Cc1noc(-c2ccc(OC(F)(F)F)cc2)c1NC(=O)OC(C)c1ccccc1F` (stereo not drawn) [Compound 45, 1-(2-Fluorophenyl)ethyl N-[3-methyl-5-[4-(trifluoromethoxy)phenyl]-4-isoxazolyl]carbamate], the negative logarithm of the IC50 (pIC50) is 5.52.
